Assays:
[1] = target: CYP2C19 (Homo sapiens, UniProt P33261)
[2] = test system: CYP3A; test: CYP3A direct inhibition; assay type: in vitro ADME; conditions: highest concentration evaluated (10 μM)
[3] = test system: CYP3A
[4] = target: human cytochrome P450 CYP3A5 (Homo sapiens, UniProt P20815); test: In vitro metabolism by CYP3A5; assay type: in vitro ADME
[5] = test system: CYP3A; test: in vitro; conditions: human
[6] = in vivo; conditions: male, rat, po
[7] = target: CYP2C9 (Homo sapiens, UniProt P11712)
[8] = Exposure after repeat oral administration in GLP toxicology study, dogs; assay type: in vivo
From the text: There were no marked sex-based differences in exposure, but in the 28-day toxicity study of compound (1-g) in rats, exposures were 1.4 to 1.9-fold higher in female rats compared to males.

[9] = test system: ER+/HER2− locally advanced or metastatic breast cancer; test: Phase 1 study: anti-tumor activity (RECIST v1.1; ORR, CBR, best objective response); assay type: in vivo, human; conditions: for ORR (CR + PR) - n (%): RECIST 1.1, Investigator assessment; for Response - n (%): RECIST 1.1, efficacy evaluable set; for Confirmed Complete Response (cCR) / Confirmed Partial Response (cPR): confirmed by second assessment at least 4 weeks after first
Description: The study employed an open-label, 3+3 design, with the option of adding backfill patients to each cohort cleared and deemed safe. […] Compound (1-g) was administered orally once daily in 28-day cycles. Tumor responses were assessed every 2 cycles using RECIST v1.1 criteria. Therefore, the initial dose of 100 mg QD was chosen to limit the number of patients exposed to lower efficacious dose levels, while adding an additional 2.5-fold safety margin. The study also involves an ongoing dose escalation study where participants receive 100 mg, 200 mg, 300 mg, 400 mg, and 600 mg once daily (QD) dose levels.
Response and progression will be evaluated in this study using RECIST Version 1.1. Lesions are either measurable or non-measurable according to the criteria. The actual number of dose levels to be explored in this study depended on determination of the non-tolerable dose based on DLTs. Other safety data, as well as PK profiles observed during the conduct of the study and any trends for anti-tumor activity were collected. Treatment cycles occurred consecutively. Evaluation of a cohort of at least 3 patients completing 1 cycle of treatment (28 days) is required prior to proceeding to the next dose level. In addition, selected dose levels may be expanded to approximately 20 patients (per dose level).
All efficacy analyses were performed using the Efficacy Evaluable Analysis Set. Objective Response Rate (ORR), defined as the proportion of patients who have measurable disease at baseline with confirmed […] or partial response (PR) (i.e., 2 CRs or PRs at least 4 weeks apart) according to the RECIST Version 1.1 criteria. Clinical Benefit Rate (CBR), defined as the proportion of patients with CR, PR, or stable disease (SD) (where SD is ≥24 weeks) according to the RECIST Version 1.1 criteria. Duration of Response (DOR), defined as the time between first documentation of a response (CR or PR) and first evidence of PD according to RECIST v1.1 or death due to any cause. […] Progression Free Survival (PFS), defined as the time from the first day of study drug administration (Day 1) until disease progression as defined by the RECIST Version 1.1 criteria, or death on study, whichever occurs first. Patients who are alive and free from disease progression were censored at the date of last tumor assessment. For ORR and CBR, estimates and the associated 95% CIs (based on the Clopper-Pearson method), at each dose level were calculated. The absolute and relative difference in ORR and CBR between the two treatment groups was presented. For PFS, Kaplan-Meier curves were generated and the median time to event, and the associated 95% CIs were provided. The hazard ratio and the 95% CIs for these endpoints between the two treatment groups was calculated.
The overall response is evaluated according to the criteria in Table 4.
The objective response rate (ORR) and the clinical benefit rate (CBR) were assessed for the participants. The clinical benefit rate (CBR), as used herein, is defined as confirmed complete response or partial response at any time and stable disease over ≥24 weeks. Evaluable participants need to complete an adequate post-treatment scan. Participants with SD who remain on study <6 months are not included in the denominator.

[10] = target: CYP2D6 (Homo sapiens, UniProt P10635); test: CYP2D6 direct inhibition; assay type: in vitro ADME; conditions: highest concentration evaluated (10 μM)
[11] = test system: CYP2B6; test: CYP2B6 induction in vitro (activity, mRNA); assay type: in vitro ADME

Chain of CYP2C19 (P33261 whole entry): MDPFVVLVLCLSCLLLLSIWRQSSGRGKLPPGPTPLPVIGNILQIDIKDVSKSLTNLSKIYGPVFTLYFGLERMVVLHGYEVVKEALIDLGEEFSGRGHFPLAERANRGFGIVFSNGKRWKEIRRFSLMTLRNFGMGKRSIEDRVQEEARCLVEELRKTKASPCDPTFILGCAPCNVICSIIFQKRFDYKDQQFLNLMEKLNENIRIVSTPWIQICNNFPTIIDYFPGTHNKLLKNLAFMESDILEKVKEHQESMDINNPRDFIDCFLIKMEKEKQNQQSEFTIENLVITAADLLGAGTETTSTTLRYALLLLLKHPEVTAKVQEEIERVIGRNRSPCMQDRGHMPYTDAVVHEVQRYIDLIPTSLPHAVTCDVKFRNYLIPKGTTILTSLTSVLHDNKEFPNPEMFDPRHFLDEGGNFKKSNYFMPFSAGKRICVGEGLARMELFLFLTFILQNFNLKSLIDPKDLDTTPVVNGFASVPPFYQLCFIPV
Chain of CYP2D6 (P10635 whole entry): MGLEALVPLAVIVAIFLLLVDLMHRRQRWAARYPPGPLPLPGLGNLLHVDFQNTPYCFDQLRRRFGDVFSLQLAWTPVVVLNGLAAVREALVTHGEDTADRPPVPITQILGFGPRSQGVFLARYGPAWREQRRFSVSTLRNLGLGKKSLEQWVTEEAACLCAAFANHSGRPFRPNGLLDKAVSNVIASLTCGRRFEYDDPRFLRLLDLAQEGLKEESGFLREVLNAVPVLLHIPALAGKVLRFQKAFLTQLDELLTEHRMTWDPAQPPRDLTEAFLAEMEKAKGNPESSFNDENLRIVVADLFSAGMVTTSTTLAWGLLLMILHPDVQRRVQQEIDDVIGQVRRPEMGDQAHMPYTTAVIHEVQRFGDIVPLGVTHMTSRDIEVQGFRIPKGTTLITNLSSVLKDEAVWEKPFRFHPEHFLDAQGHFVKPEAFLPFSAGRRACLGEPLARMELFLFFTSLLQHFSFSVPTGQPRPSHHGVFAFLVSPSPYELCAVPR
Chain of human cytochrome P450 CYP3A5 (P20815 whole entry): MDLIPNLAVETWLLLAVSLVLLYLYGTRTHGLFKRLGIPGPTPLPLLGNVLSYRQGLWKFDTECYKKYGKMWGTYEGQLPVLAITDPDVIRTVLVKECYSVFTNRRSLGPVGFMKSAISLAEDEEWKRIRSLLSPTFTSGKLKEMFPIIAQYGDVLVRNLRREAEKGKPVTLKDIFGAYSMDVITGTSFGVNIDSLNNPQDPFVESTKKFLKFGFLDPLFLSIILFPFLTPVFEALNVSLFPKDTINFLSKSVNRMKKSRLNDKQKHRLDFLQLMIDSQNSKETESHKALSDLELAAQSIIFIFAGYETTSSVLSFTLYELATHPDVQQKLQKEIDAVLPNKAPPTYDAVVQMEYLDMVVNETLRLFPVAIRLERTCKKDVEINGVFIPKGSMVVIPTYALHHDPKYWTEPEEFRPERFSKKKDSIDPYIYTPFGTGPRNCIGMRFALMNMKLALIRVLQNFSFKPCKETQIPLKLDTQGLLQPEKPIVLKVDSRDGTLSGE
Chain of CYP2C9 (P11712 whole entry): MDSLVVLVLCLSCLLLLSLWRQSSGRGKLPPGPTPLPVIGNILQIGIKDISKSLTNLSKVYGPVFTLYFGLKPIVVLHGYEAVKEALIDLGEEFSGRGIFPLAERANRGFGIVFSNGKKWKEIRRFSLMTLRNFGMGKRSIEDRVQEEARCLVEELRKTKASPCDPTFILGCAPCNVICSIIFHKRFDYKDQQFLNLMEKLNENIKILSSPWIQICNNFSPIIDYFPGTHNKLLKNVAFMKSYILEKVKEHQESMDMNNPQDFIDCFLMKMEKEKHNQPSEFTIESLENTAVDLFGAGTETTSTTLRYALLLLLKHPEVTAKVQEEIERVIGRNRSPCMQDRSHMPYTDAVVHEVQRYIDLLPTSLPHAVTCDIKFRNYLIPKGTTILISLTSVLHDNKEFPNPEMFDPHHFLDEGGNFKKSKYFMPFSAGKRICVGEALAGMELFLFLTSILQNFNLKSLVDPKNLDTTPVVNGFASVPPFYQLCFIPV

O=C1CC[C@H](N2Cc3cc(N4CCN(CC5CCN(c6ccc([C@@H]7c8ccc(O)cc8OC[C@@H]7c7ccccc7)cc6F)CC5)CC4)ccc3C2=O)C(=O)N1 [compound (1-g), (S)-3-(5-(4-((1-(2-fluoro-4-((3S,4R)-7-hydroxy-3-phenylchroman-4-yl)phenyl)piperidin-4-yl)methyl)piperazin-1-yl)-1-oxoisoindolin-2-yl)piperidine-2,6-dione]
CYP2C19 time-dependent inhibition [1]: without showing time-dependent inhibition
CYP3A direct inhibition [2]: did not directly inhibit
CYP3A time-dependent inhibition [3]: weak time-dependent inhibition
metabolism by CYP3A5 [4]: weakly metabolized
inhibition at 10 µM [5]: 31.3%
NOAEL at 28 day [6]: 270 mg/kg/day
CYP2C9 time-dependent inhibition [7]: without showing time-dependent inhibition
accumulation with repeated dosing [8]: No significant accumulation
change of exposure following repeat dosing ([8]; 45 mg/kg/day): decreased in females and slightly decreased in males
dose proportionality of exposure ([8]; 5 to 45 mg/kg/day, repeat administration): slightly less than dose proportional
exposure (AUC0-24h) versus dose ([8]; repeat oral administration): increased in an approximately dose-dependent manner
Non-Response - n (%) ([9]; Cohort 1 (100 mg QD), N = 2): 1 (50.0) n (%)
Not Applicable (NA) ([9]; Cohort 1 (100 mg QD), N = 2): 0 n (%)
Not Evaluable (NE) ([9]; Cohort 1 (100 mg QD), N = 2): 0 n (%)
Progressive Disease (PD) ([9]; Cohort 1 (100 mg QD), N = 2): 0 n (%)
Unconfirmed Complete Response (uCR) ([9]; Cohort 1 (100 mg QD), N = 2): 0 n (%)
Unconfirmed Partial Response (uPR) ([9]; Cohort 1 (100 mg QD), N = 2): 0 n (%)
ORR (CR + PR) - n (%) ([9]; Cohort 1 (100 mg QD), N = 2): 1 (50.0) n (%)
Response - n (%) ([9]; Cohort 1 (100 mg QD), N = 2): 1 (50.0) n (%)
Confirmed Complete Response (cCR) ([9]; Cohort 1 (100 mg QD), N = 2): 0 n (%)
Confirmed Partial Response (cPR) ([9]; Cohort 1 (100 mg QD), N = 2): 1 (50.0) n (%)
Non-Response - n (%) ([9]; Cohort 2 (200 mg QD), N = 8): 6 (75.0) n (%)
Not Applicable (NA) ([9]; Cohort 2 (200 mg QD), N = 8): 0 n (%)
Not Evaluable (NE) ([9]; Cohort 2 (200 mg QD), N = 8): 1 (12.5) n (%)
Progressive Disease (PD) ([9]; Cohort 2 (200 mg QD), N = 8): 2 (25.0) n (%)
Unconfirmed Complete Response (uCR) ([9]; Cohort 2 (200 mg QD), N = 8): 0 n (%)
Unconfirmed Partial Response (uPR) ([9]; Cohort 2 (200 mg QD), N = 8): 0 n (%)
ORR (CR + PR) - n (%) ([9]; Cohort 2 (200 mg QD), N = 8): 2 (25.0) n (%)
Response - n (%) ([9]; Cohort 2 (200 mg QD), N = 8): 2 (25.0) n (%)
Confirmed Complete Response (cCR) ([9]; Cohort 2 (200 mg QD), N = 8): 0 n (%)
Confirmed Partial Response (cPR) ([9]; Cohort 2 (200 mg QD), N = 8): 2 (25.0) n (%)
Non-Response - n (%) ([9]; Cohort 3 (300 mg QD), N = 9): 8 (88.9) n (%)
Not Applicable (NA) ([9]; Cohort 3 (300 mg QD), N = 9): 0 n (%)
Not Evaluable (NE) ([9]; Cohort 3 (300 mg QD), N = 9): 0 n (%)
Progressive Disease (PD) ([9]; Cohort 3 (300 mg QD), N = 9): 4 (44.4) n (%)
Unconfirmed Complete Response (uCR) ([9]; Cohort 3 (300 mg QD), N = 9): 0 n (%)
Unconfirmed Partial Response (uPR) ([9]; Cohort 3 (300 mg QD), N = 9): 0 n (%)
ORR (CR + PR) - n (%) ([9]; Cohort 3 (300 mg QD), N = 9): 1 (11.1) n (%)
Response - n (%) ([9]; Cohort 3 (300 mg QD), N = 9): 1 (11.1) n (%)
Confirmed Complete Response (cCR) ([9]; Cohort 3 (300 mg QD), N = 9): 0 n (%)
Confirmed Partial Response (cPR) ([9]; Cohort 3 (300 mg QD), N = 9): 1 (11.1) n (%)
Non-Response - n (%) ([9]; Cohort 4 (400 mg QD), N = 4): 4 (100) n (%)
Not Applicable (NA) ([9]; Cohort 4 (400 mg QD), N = 4): 0 n (%)
Not Evaluable (NE) ([9]; Cohort 4 (400 mg QD), N = 4): 0 n (%)
Progressive Disease (PD) ([9]; Cohort 4 (400 mg QD), N = 4): 2 (50.0) n (%)
Unconfirmed Complete Response (uCR) ([9]; Cohort 4 (400 mg QD), N = 4): 0 n (%)
Unconfirmed Partial Response (uPR) ([9]; Cohort 4 (400 mg QD), N = 4): 0 n (%)
ORR (CR + PR) - n (%) ([9]; Cohort 4 (400 mg QD), N = 4): 0 n (%)
Response - n (%) ([9]; Cohort 4 (400 mg QD), N = 4): 0 n (%)
Confirmed Complete Response (cCR) ([9]; Cohort 4 (400 mg QD), N = 4): 0 n (%)
Confirmed Partial Response (cPR) ([9]; Cohort 4 (400 mg QD), N = 4): 0 n (%)
Non-Response - n (%) ([9]; Cohort 5 (600 mg QD), N = 3): 3 (100) n (%)
Not Applicable (NA) ([9]; Cohort 5 (600 mg QD), N = 3): 0 n (%)
Not Evaluable (NE) ([9]; Cohort 5 (600 mg QD), N = 3): 0 n (%)
Progressive Disease (PD) ([9]; Cohort 5 (600 mg QD), N = 3): 0 n (%)
Unconfirmed Complete Response (uCR) ([9]; Cohort 5 (600 mg QD), N = 3): 0 n (%)
Unconfirmed Partial Response (uPR) ([9]; Cohort 5 (600 mg QD), N = 3): 0 n (%)
Response - n (%) ([9]; Cohort 5 (600 mg QD), N = 3): 0 n (%)
Confirmed Complete Response (cCR) ([9]; Cohort 5 (600 mg QD), N = 3): 0 n (%)
Confirmed Partial Response (cPR) ([9]; Cohort 5 (600 mg QD), N = 3): 0 n (%)
Non-Response - n (%) ([9]; Overall, N = 26): 22 (84.6) n (%)
Not Applicable (NA) ([9]; Overall, N = 26): 0 n (%)
Not Evaluable (NE) ([9]; Overall, N = 26): 1 (3.8) n (%)
Progressive Disease (PD) ([9]; Overall, N = 26): 8 (30.8) n (%)
Unconfirmed Complete Response (uCR) ([9]; Overall, N = 26): 0 n (%)
Unconfirmed Partial Response (uPR) ([9]; Overall, N = 26): 0 n (%)
ORR (CR + PR) - n (%) ([9]; Overall, N = 26): 4 (15.4) n (%)
Response - n (%) ([9]; Overall, N = 26): 4 (15.4) n (%)
Confirmed Complete Response (cCR) ([9]; Overall, N = 26): 0 n (%)
Confirmed Partial Response (cPR) ([9]; Overall, N = 26): 4 (15.4) n (%)
CYP2D6 direct inhibition [10]: did not directly inhibit
CYP2B6 induction (activity or mRNA expression) [11]: did not significantly induce activity or mRNA expression
